From patent US7935814B2, “Nitroguanosine-3′ 5′-cyclic monophosphate compound and protein kinase G activating agent” (Kumamoto University, priority 2005, dated 2011)

How the values were obtained:
[1] = target: T1, protein kinase G (Homo sapiens, UniProt Q13976); experiment: Effect of activating protein kinase G: phosphorylation of Ser 157 of VASP detected by Western blotting in human uterine smooth muscle cells; assay type: cell-based; settings: for 50-kDa band of VASP having the phosphorylated Ser at position 157 (anti-VASP (Ser157) antibody): 1 mM compound, 5, 10, 15 and 30 minutes after addition, no bands at 0 minutes
T1 construct: host or cells: human uterine smooth muscle cells
T1 sequence (Q13976 1-671): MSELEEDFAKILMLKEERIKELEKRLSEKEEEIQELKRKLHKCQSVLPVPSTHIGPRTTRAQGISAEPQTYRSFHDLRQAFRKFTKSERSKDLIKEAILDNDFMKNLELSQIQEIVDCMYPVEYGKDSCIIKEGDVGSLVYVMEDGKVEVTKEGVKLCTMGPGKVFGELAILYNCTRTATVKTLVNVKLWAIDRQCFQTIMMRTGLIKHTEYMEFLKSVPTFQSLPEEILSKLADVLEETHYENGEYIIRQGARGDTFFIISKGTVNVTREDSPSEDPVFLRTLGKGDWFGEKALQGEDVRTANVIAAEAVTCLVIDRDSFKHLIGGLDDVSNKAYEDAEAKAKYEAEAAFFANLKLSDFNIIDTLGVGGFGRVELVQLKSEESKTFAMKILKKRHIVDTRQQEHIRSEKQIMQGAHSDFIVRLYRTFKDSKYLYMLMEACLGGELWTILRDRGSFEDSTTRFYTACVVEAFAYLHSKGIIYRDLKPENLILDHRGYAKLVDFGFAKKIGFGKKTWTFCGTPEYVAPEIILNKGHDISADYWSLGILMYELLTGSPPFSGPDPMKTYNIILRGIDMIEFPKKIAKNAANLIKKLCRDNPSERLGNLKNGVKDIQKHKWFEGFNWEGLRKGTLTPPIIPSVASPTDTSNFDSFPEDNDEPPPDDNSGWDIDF
Method: Intracellular signaling conducted by 8-nitroguanosine-3′,5′-cyclic monophosphate through mediation of protein kinase G was analyzed according to the method of Sergei D. Rybalkin et al (J. Biol. Chem. 277 3310-3317, 2002). Specifically, phosphorylation of Ser at position 157 of VASP (Vasodilator Stimulated Phosphoprotein), a substrate protein of protein kinase G, was detected by Western blotting. Specifically, human uterine smooth muscle cells (produced by CAMBREX) were cultured in Dulbecco's Modified Eagle Medium (DMEM-10% FCS) containing 10% fetal calf serum (FCS). The cells were seeded on a 6-well plate (produced by Falcon) at 4×10^5 cells/well and then cultured for 24 hours. The resultant was washed 3 times using phosphate buffered saline (PBS). Subsequently, DMEM-10% FCS containing 1 mM 8-nitroguanosine-3′,5′-cyclic monophosphate and 1 mM 8-Br-cGMP (produced by SIGMA) was added to the cells. Medium was immediately removed at 5 minutes, 10 minutes, 15 minutes, and 30 minutes after addition, followed by 2 instances of washing with PBS. A cell lysis solution (20 mM Tris-HCl (pH 8.0), 0.15 M NaCl, 1 mM EDTA, 1 mM EGTA, 1% TritonX-100, 2.5 mM sodium pyrophosphate, 1 mM β-glycerolphosphate, […], 1 μg/ml leupeptin, and 1 mM PMSF) was added. The resultant was allowed to stand on ice for 5 minutes, recovered using a cell scraper, transferred into an Eppendorf tube, and then ultrasonicated twice (5 seconds each). […] The protein concentration of the soluble fraction of the supernatant was determined using a BCA protein assay (produced by PIERCE). […] The resultant was then washed 3 times with TBST (10 minutes each), chemiluminescence was detected using LAS 1000plus (produced by FujiFilm) and ECL-plus (produced by Amersham Biosciences) as color developers, and then image files were incorporated. […] As is understood from the results in FIG. 1, no bands were detected at 0 minutes, but a 50-kDa band of VASP having the phosphorylated Ser at position 157 was detected at 5, 10, 15, and 30 minutes after addition of 8-nitroguanosine-3′,5′-cyclic monophosphate or 8-Br-cGMP.

[2] = tested on: excised rat carotid artery ring specimen; experiment: Effect of relaxing vascular smooth muscle: phenylephrine pre-contracted excised rat carotid artery ring specimen, Magnus equipment; settings: for concentration required for exertion of the tension variation of 0.1 g: 100 nM phenylephrine pre-contraction, resting tension 1 g
Method: The effect of relaxing vascular smooth muscle exerted by 8-nitroguanosine-3′,5′-cyclic monophosphate was determined according to the method of Magnus R (Ergen Physiol. 2, 637-672, 1903) by causing phenylephrine, which is an α1 adrenergic receptor agonist, to act to cause pre-contraction of an excised rat carotid artery ring specimen, adding 8-nitroguanosine-3′,5′-cyclic monophosphate at different concentrations, and then determining the resulting relaxing effect using Magnus laboratory equipment, Specifically, an SD rat (male, 10-week-old, body weight of 350 g, CHARLES RIVER LABORATORIES JAPAN, INC.) was sacrificed under ether anesthesia, a carotid artery was excised, a stainless-steel bar was inserted into the intravascular lumen, and then endothelial cells were removed through scraping, thereby preparing ring vascular specimens of approximately 4 mm each. The vascular specimens were immersed in 3 ml of a Krebs buffer (1.2 mM NaHPO4, 120 mM NaCl, 5.9 mM KCl, 2.5 mM CaCl2, 1.2 mM MgCl2, 15.5 mM NaHCO3, and 11.5 mM glucose). The Krebs buffer used herein had been previously kept at 37° C., aerated with 95% O2+5% CO2 for oxygenation, and adjusted to pH of 7.4. The ring vascular specimens were fixed within a microtissue organ bath MTOB-2 (produced by Labo Support Co., Ltd.). Isometric tension was measured at the resting tension of 1 g using an isometric transducer and an amplifier for such transducer (AG-621G Nihon Kohden Corporation). A PowerLab data acquisition apparatus (AD instruments) was used for data analysis. 1-Phenylephrine hydrochloride (produced by Wako Pure Chemical Industries, Ltd.) was added at a final concentration of 100 nM to the Krebs buffer, so as to sufficiently contract the blood vessels. 8-Nitroguanosine-3′,5′-cyclic monophosphate and 8-Br-cGMP were each cumulatively administered at final concentrations of 1 μM, 3 μM, 10 μM, 30 μM, 100 μM, and 300 μM. The relaxing action on vascular smooth muscle was determined. […] In particular, whereas the 8-nitroguanosine-3′,5′-cyclic monophosphate concentration required for exertion of the tension variation of 0.1 g was 10 μM, the 8-Br-cGMP concentration required for the same was 30 μM.

[3] = endothelium-removed rat carotid artery ring

Nc1nc2c(nc(Br)n2[C@@H]2O[C@@H]3COP(=O)(O)O[C@H]3[C@H]2O)c(=O)[nH]1 [8-Br-cGMP, 8-bromoguanosine-3′,5′-cyclic monophosphate, reference compound]
50-kDa band of VASP having the phosphorylated Ser at position 157 (anti-VASP (Ser157) antibody) [1]: detected
concentration required for exertion of the tension variation of 0.1 g [2, 3]: 30 µM

Nc1nc2c(nc([N+](=O)[O-])n2C2O[C@@H]3COP(=O)(O)OC3C2O)c(=O)[nH]1 (stereo partly shown) [8-nitroguanosine-3′,5′-cyclic monophosphate]
50-kDa band of VASP having the phosphorylated Ser at position 157 (anti-VASP (Ser157) antibody) [1]: detected
50-kDa band shifted to the higher molecular weight side because of phosphorylation (antibody recognizing the entire VASP molecule) ([1]; 1 mM compound, at 5 minutes or more after addition, almost no 50-kDa band at 0 minutes): detected in all cases
concentration required for exertion of the tension variation of 0.1 g [2, 3]: 10 µM
relaxing effect on blood vessel contracted using phenylephrine ([2]; endothelium-removed rat carotid artery ring, 100 nM phenylephrine, cumulative 1-300 μM): exerted a relaxing effect
effect of relaxing vascular smooth muscle relative to 8-Br-cGMP ([2]; rat carotid artery ring, from concentrations giving tension variation of 0.1 g): approximately 3 times
